The source of these data is article PMC4503722, “Novel Phenotypic Outcomes Identified for a Public Collection of Approved Drugs from a Publicly Accessible Panel of Assays” (PLoS ONE, 2015).

For one assay, the system named is INS-1E cells. In words: cells. Type of assay: cell-based, rat. The note with it: 5 mM glucose; for 5mMGluc_INS1E SecretionMod IC50/EC50: assay number 8.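 On all read-outs here: secreted insulin quantified by homogeneous immunoassay.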
A further assay relates to STC-1 cell line. It counts as cell-based, mouse. Conditions: for mSTC-1 GLP1 Secretion IC50/EC50: assay number 13; for IC50/EC50, mSTC-1 GLP1 Secretion (assay number 13): concentration response.
In assay [1] the test system is ECFC/ADSC co-culture cell nuclei number.
The test system of a further assay is NCI-H716 cells. Description: cells. Conditions: for hNCI-H716 GLP1 Secretion IC50/EC50: assay number 12; for IC50/EC50, hNCI-H716 GLP1 Secretion (assay number 12): concentration response. Type of assay: cell-based, Human.
Assay [2] deals with endothelial tube formation in co-cultures of ECFCs and ADSCs treated with VEGF. In words: cells. Type of assay: cell-based, human.
A further assay concerns RKO. In words: cells. It counts as cell-based. The note with it: assay number 29.
For another assay, the system named is Colo320. Description: cells. It counts as cell-based. Conditions: assay number 27.
A further assay concerns SNU-C1. In words: cells. It counts as cell-based. Conditions: assay number 30.
In another assay the test system is DLD-1. Description: cells. Conditions: assay number 23. It counts as cell-based.
Another assay has as its system HT-29. In words: cells. Type of assay: cell-based. The note with it: assay number 28.
Another assay relates to HCT116. In words: cells. It counts as cell-based. The note with it: assay number 25; basal.
In the next assay the test system is SW480. In words: cells. It counts as cell-based. Conditions: assay number 24.
Another assay relates to HeLa cells. Description: cells. Type of assay: cell-based.
Assay [3] has as its system HCT116 cells treated with a GSK3β inhibitor. Description: cells. Conditions: assay number 26; GSK3b inhibitor pretreated. Type of assay: cell-based.

Molecules are shown by their SMILES.

`Cc1ccc(O)cc1` [NCGC00091519-09]: the “5mMGluc_INS1E SecretionMod IC50/EC50” value in the assay on INS-1E cells is given as more than 33.33 µM. The “mSTC-1 GLP1 Secretion IC50/EC50” value in the assay on STC-1 cell line is listed as more than 40 µM. Besides, the “VEGF_ADSC\ECFC Angio Hoechst NucArea IC50/EC50” value in [1] is on record as more than 10 µM. The “hNCI-H716 GLP1 Secretion IC50/EC50” value in the assay with NCI-H716 cells was more than 40 µM. The “VEGF_ADSC\ECFC Angio CD31 TubeArea IC50/EC50” value in assay [2] was more than 10 µM.
In the case of `CC(C)(C)CC(C)(C)c1ccc(O)c(Cc2ccc(Cl)cc2Cl)c1` [NCGC00095016-05], the “5mMGluc_INS1E SecretionMod IC50/EC50” value in the assay with INS-1E cells is reported as more than 33.33 µM. For the same molecule, the “mSTC-1 GLP1 Secretion IC50/EC50” value with STC-1 cell line amounted to 0.5436 µM. Moreover, in the assay on NCI-H716 cells, the “hNCI-H716 GLP1 Secretion IC50/EC50” value is given as 9.073 µM.
In the case of `CCCCCN=C(N)N/N=C/c1c[nH]c2ccc(OC)cc12` [NCGC00095192-05], in the assay with INS-1E cells, the “5mMGluc_INS1E SecretionMod IC50/EC50” value is on record as 16.8442 µM. Further, the “mSTC-1 GLP1 Secretion IC50/EC50” value in the assay with STC-1 cell line was more than 40 µM. In addition, the “VEGF_ADSC\ECFC Angio Hoechst NucArea IC50/EC50” value in assay [1] is given as 7.175 µM. The “hNCI-H716 GLP1 Secretion IC50/EC50” value in the assay with NCI-H716 cells amounted to 10.8586 µM. For the same molecule, the “VEGF_ADSC\ECFC Angio CD31 TubeArea IC50/EC50” value in assay [2] stood at 3.1318 µM.
Turning to `O=C1Nc2ccc(Cl)cc2[C@@](C#CC2CC2)(C(F)(F)F)O1` [NCGC00159337-04], the “5mMGluc_INS1E SecretionMod IC50/EC50” value in the assay on INS-1E cells came to 3.8674 µM. The “mSTC-1 GLP1 Secretion IC50/EC50” value in the assay on STC-1 cell line is reported as 2.476 µM. Also, the “hNCI-H716 GLP1 Secretion IC50/EC50” value in the assay on NCI-H716 cells was determined as 21.246 µM.
As for `Cc1cc(OI)c(C(C)C)cc1-c1cc(C(C)C)c(OI)cc1C` [NCGC00159504-04], in the assay with INS-1E cells, the “IC50/EC50, 5mMGluc_INS1E SecretionMod (assay number 8)” value was more than 33.33 µM. The “IC50/EC50, mSTC-1 GLP1 Secretion (assay number 13)” value with STC-1 cell line was 15.1081 µM. In assay [1], the “IC50/EC50, VEGF_ADSC\ECFC Angio Hoechst NucArea (assay number 3)” value is more than 10 µM. Moreover, in the assay on NCI-H716 cells, the “IC50/EC50, hNCI-H716 GLP1 Secretion (assay number 12)” value is reported as more than 40 µM. The “IC50/EC50, VEGF_ADSC\ECFC Angio CD31 TubeArea (assay number 2)” value in [2] is recorded as more than 10 µM.
`CCN(CC)CCOc1ccc(C(O)(Cc2ccc(Cl)cc2)c2ccc(C)cc2)cc1` (centres unmarked) [NCGC00165907-03]: the “Basal_Viability ATP RKO IC50/EC50” value in the assay with RKO (basal) is given as 0.2987 µM. For the same molecule, in the assay with Colo320 (basal), the “Basal_Viability ATP Colo 320 IC50/EC50” value is 8.9928 µM. Moreover, in the assay with SNU-C1 (basal), the “Basal_Viability ATP SNU-C1 IC50/EC50” value is 2.4577 µM. Further, in the assay on STC-1 cell line, the “mSTC-1 GLP1 Secretion IC50/EC50” value was more than 40 µM. For the same molecule, in the assay with DLD-1 (basal), the “Basal_Viability ATP DLD-1 IC50/EC50” value was more than 20 µM. For the same molecule, the “VEGF_ADSC\ECFC Angio Hoechst NucArea IC50/EC50” value in assay [1] was determined as 6.977 µM. Besides, the “Basal_Viability ATP HT-29 IC50/EC50” value in the assay with HT-29 (basal) came out at 3.1665 µM. Besides, the “Basal_Viability ATP HCT116 IC50/EC50” value with HCT116 was more than 20 µM. Moreover, the “Basal_Viability ATP SW480 IC50/EC50” value with SW480 (basal) stood at 3.7592 µM. For the same molecule, the “hNCI-H716 GLP1 Secretion IC50/EC50” value with NCI-H716 cells is reported as 36.1068 µM. In addition, the “VEGF_ADSC\ECFC Angio CD31 TubeArea IC50/EC50” value in assay [2] turned out to be 3.2104 µM. Besides, the “Hela CellCycMod PI 2N IC50/EC50” value in the assay on HeLa cells (assay number 14, 2N) is more than 10 µM. Moreover, in the assay on HeLa cells (assay number 15, S phase), the “Hela CellCycMod PI S Phase IC50/EC50” value is listed as more than 10 µM. In the assay with HeLa cells (assay number 16, 4N), the “Hela CellCycMod PI 4N IC50/EC50” value is more than 10 µM. Also, the “Hela CellCycMod PI MI IC50/EC50” value in the assay with HeLa cells (assay number 17, MI) is more than 10 µM. For the same molecule, in the assay with HeLa cells (assay number 18, cell number), the “Hela CellCycMod PI Cell Number IC50/EC50” value was more than 10 µM. Moreover, in assay [3], the “GSK3b inh pretreated_Viability ATP HCT116 IC50/EC50” value is reported as 3.7372 µM.
As for `FC(F)(F)C(F)(F)C(F)(F)C(F)(F)C(F)(F)C(F)(F)C(F)(F)C(F)(F)Br` [NCGC00166217-02], the “5mMGluc_INS1E SecretionMod IC50/EC50” value in the assay with INS-1E cells is reported as more than 33.33 µM. For the same molecule, the “mSTC-1 GLP1 Secretion IC50/EC50” value with STC-1 cell line is recorded as more than 40 µM. The “hNCI-H716 GLP1 Secretion IC50/EC50” value in the assay with NCI-H716 cells is more than 40 µM.
As to `C/C(=C(\CCOC(=O)C(C)C)SS/C(CCOC(=O)C(C)C)=C(/C)N(C=O)Cc1cnc(C)nc1N)N(C=O)Cc1cnc(C)nc1N` [NCGC00167456-02], the “5mMGluc_INS1E SecretionMod IC50/EC50” value with INS-1E cells was more than 33.33 µM. Also, the “mSTC-1 GLP1 Secretion IC50/EC50” value in the assay on STC-1 cell line was more than 40 µM. In the assay with NCI-H716 cells, the “hNCI-H716 GLP1 Secretion IC50/EC50” value was 2.3879 µM.
As to `Clc1ccc(CCC(Cn2ccnc2)Sc2c(Cl)cccc2Cl)cc1` (centres unmarked) [NCGC00179596-03], the “Basal_Viability ATP RKO IC50/EC50” value with RKO is on record as 2.3045 µM. The “Basal_Viability ATP Colo 320 IC50/EC50” value in the assay with Colo320 was 0.2211 µM. Moreover, the “Basal_Viability ATP SNU-C1 IC50/EC50” value with SNU-C1 stood at 0.9956 µM. For the same molecule, the “mSTC-1 GLP1 Secretion IC50/EC50” value in the assay on STC-1 cell line stood at 6.9953 µM. The “Basal_Viability ATP DLD-1 IC50/EC50” value in the assay with DLD-1 is 1.8367 µM. Besides, the “VEGF_ADSC\ECFC Angio Hoechst NucArea IC50/EC50” value in assay [1] amounted to 6.743 µM. For the same molecule, the “Basal_Viability ATP HT-29 IC50/EC50” value with HT-29 was 3.009 µM. Besides, the “Basal_Viability ATP HCT116 IC50/EC50” value in the assay on HCT116 is recorded as 2.0642 µM. The “Basal_Viability ATP SW480 IC50/EC50” value in the assay on SW480 is listed as 1.6936 µM. Besides, the “hNCI-H716 GLP1 Secretion IC50/EC50” value in the assay on NCI-H716 cells is given as 15.9807 µM. In assay [2], the “VEGF_ADSC\ECFC Angio CD31 TubeArea IC50/EC50” value amounted to 3.5313 µM. In addition, the “GSK3b inh pretreated_Viability ATP HCT116 IC50/EC50” value in assay [3] came to 0.8414 µM.
As to `CCOC(=O)c1ccccc1O` [NCGC00181161-03], the “IC50/EC50, 5mMGluc_INS1E SecretionMod (assay number 8)” value with INS-1E cells is listed as more than 33.33 µM. In the assay on STC-1 cell line, the “IC50/EC50, mSTC-1 GLP1 Secretion (assay number 13)” value is listed as more than 40 µM. Moreover, in the assay on NCI-H716 cells, the “IC50/EC50, hNCI-H716 GLP1 Secretion (assay number 12)” value is reported as more than 40 µM.
